Drawing on patent US5008267A, “Pyrimidinedione compounds, method of producing the same and antiarrythmic agents containing the same” (Mitsui Toatsu Chemicals, Incorporated, priority 1988, dated 1991), this text covers change in vivo, activation and mortality for 14 molecules.

For data set [1], the system named is ventricular muscle refractory period. As to the kind of experiment: Influence on ventricular muscle refractory period (ERP). As to conditions: Canis lupus familiaris, iv, i.v., (W-Y)/Y×100, read-out: ERP (%; extensibility of refractory period). Format: in vivo, mongrel dog. Summed up:
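Anesthetized (pentobarbital 30 mg/kg i.v.) mongrel dog, compound given i.v. or intraduodenally; right ventricle paced via bipolar electrodes at 400 msec, 4 msec pulses, twice threshold, sinus pacemaker abolished with alcohol. Refractory period taken as shortest inter-train interval (10 msec steps) losing response; ERP (%) = (after − before)/before × 100.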

For data set [2], the system named is Purkinje fiber of the right ventricular free wall (myocardial action potential). Put plainly: Influence on myocardial action potential duration time (APD75), isolated right ventricular free wall, microelectrode in Purkinje fiber. As to conditions: Canis lupus familiaris, 20 min, 20 minutes' incubation; for activation at 1 µg/mL: 1.0 μg/ml; for activation at 1 µg/mL / activation at 3 µg/mL / activation at 10 µg/mL: (B-A)/A×100, read-out: APD75 (%); for activation at 3 µg/mL: 3.0 μg/ml; for activation at 10 µg/mL: 10.0 μg/ml. Format: cell-based, dog.

Data set [3] can be described thus: Toxicity test, mortality rate 24 hours after administration. The settings on record: mouse, in vivo. The procedure:
Each of the compounds prepared in the above-mentioned examples was administered into a mouse (ddY strain, male). In each case, oral administration (p.o.) and intra peritoneal administration (i.p.) were separately carried out in a dose of 300 mg/kg and 250 mg/kg, respectively.
A mortality rate (number of specimens: one group=2 to 4 mice) of the mice 24 hours after the administration was calculated, and the results are set forth in Table 3.
Following the same procedure as in Toxicity Test 1, toxicity of the respective compounds prepared in the above examples in Table 5 was tested to calculate a mortality rate of mice.
Administration was made by oral administration (p.o.) in an amount of 300 mg/kg of each compound for one mouse.
Following the same procedure as in Toxicity Test 1, toxicity of the respective compounds prepared in the above examples in Table 7 was tested to calculate a mortality rate of mice.

Counter-ions that a name gives are not always drawn.

With `Cn1c(NCCN(CCO)CCCc2ccc([N+](=O)[O-])cc2)cc(=O)n(C)c1=O` [Compound 8], in data set [1], the change in vivo at 0.1 mg/kg turned out to be 0%, the change in vivo at 0.3 mg/kg was determined as 10.7%, the change in vivo at 1 mg/kg stood at 21.4% and the change in vivo at 3 mg/kg was determined as 14.2%. In data set [2] (0.3 μg/ml, (B-A)/A×100), this molecule showed an activation at 0.3 µg/mL of 16%. In addition, in data set [2], the activation at 1 µg/mL was 22% and the activation at 3 µg/mL stood at 38%. The same molecule had a mortality at 24 h in data set [3] (ip, 250 mg/kg (i.p.)) of 0%. For the same molecule, the mortality at 24 h in data set [3] (po, 300 mg/kg (p.o.)) came out at 0%.

As for `Cn1c(N2CCN(CCc3ccccc3[N+](=O)[O-])CC2)cc(=O)n(C)c1=O` [Compound 10, 1,3-dimethyl-6-{4-[2-(2-nitrophenyl)ethyl]piperazin-1yl}-2,4(1H,3H)-pyrimidinedione oxalate], in data set [1], the change in vivo at 0.1 mg/kg was determined as 6.7%, the change in vivo at 0.3 mg/kg was found to be 6.7%, the change in vivo at 1 mg/kg was 13.3% and the change in vivo at 3 mg/kg came to 20%. Further, in data set [2], the activation at 3 µg/mL was 2% and the activation at 10 µg/mL came to 11%. This molecule came in with a mortality at 24 h in data set [3] (po, 300 mg/kg (p.o.)) of 0%.

Regarding `CCN(CCNCCCCc1ccc([N+](=O)[O-])cc1)c1cc(=O)n(C)c(=O)n1C` [Compound 26, 1,3-dimethyl-6-{N-ethyl-N-<2-[4-(4-nitrophenyl)butylamino]ethyl>amino}-2,4(1H,3H)-pyrimidinedione oxalate], in data set [1], the change in vivo at 0.1 mg/kg is 6.5%, the change in vivo at 0.3 mg/kg turned out to be 6.5%, the change in vivo at 1 mg/kg amounted to 6.5% and the change in vivo at 3 mg/kg is 6.5%. Further, in data set [2], the activation at 1 µg/mL was found to be 20%, the activation at 3 µg/mL is 30% and the activation at 10 µg/mL was 35%. The same molecule gave a mortality at 24 h in data set [3] (ip, 250 mg/kg (i.p.)) of 50%. This molecule had a mortality at 24 h in data set [3] (po, 300 mg/kg (p.o.)) of 0%.

Turning to `Cn1c(N2CCN(CCCCc3ccc([N+](=O)[O-])cc3)CC2)cc(=O)n(C)c1=O` [Compound 34, 1,3-dimethyl-6-{4-[4-(4-nitrophenyl)butyl]piperazine-1-yl}-2,4(1H,3H)-pyrimidinedione hydrochloride], in data set [1], the change in vivo at 0.1 mg/kg was found to be 6%, the change in vivo at 0.3 mg/kg turned out to be 12%, the change in vivo at 1 mg/kg was 12% and the change in vivo at 3 mg/kg is 18%. Also, in data set [2], the activation at 3 µg/mL was found to be 17% and the activation at 10 µg/mL worked out at 25%. Besides, the mortality at 24 h in data set [3] (po, 300 mg/kg (p.o.)) was found to be 100%.

In the case of `Cn1c(N2CCN(CCCSc3ccc([N+](=O)[O-])cc3)CC2)cc(=O)n(C)c1=O` [Compound 51, 1,3-dimethyl-6-{4-[3-(4-nitrophenylthio)propyl]piperazin-1-yl}-2,4(1H,3H)-pyrimidinedione oxalate], in data set [1], the change in vivo at 0.1 mg/kg was 12.6%, the change in vivo at 0.3 mg/kg was determined as 12.6% and the change in vivo at 1 mg/kg worked out at 19%. Further, the activation at 3 µg/mL in data set [2] was 33%. This molecule yielded a mortality at 24 h in data set [3] (po, 300 mg/kg (p.o.)) of 0%.

With `CCN(CCNc1ccc([N+](=O)[O-])cc1)CCNc1cc(=O)n(C)c(=O)n1C` [Compound 71, 1,3-dimethyl-6-{2-[N-ethyl-2-(4-nitroanilino)ethylamino]ethylamino}-2,4(1H,3H)-pyrimidinedione oxalate], in data set [1], the change in vivo at 0.1 mg/kg worked out at 6.7%, the change in vivo at 0.3 mg/kg amounted to 7.7%, the change in vivo at 1 mg/kg amounted to 13.4% and the change in vivo at 3 mg/kg is 16.6%. In data set [2], the activation at 1 µg/mL turned out to be 8%, the activation at 3 µg/mL worked out at 15% and the activation at 10 µg/mL amounted to 17%. In addition, the mortality at 24 h in data set [3] (po, 300 mg/kg (p.o.)) turned out to be 0%.

Take `Cn1c(N2CCN(CCCOc3ccc(C(=O)c4ccccc4)cc3[N+](=O)[O-])CC2)cc(=O)n(C)c1=O` [Compound 78, 1,3-dimethyl-6-{4-[3-(4-benzoyl-2-nitrophenoxy)propyl]piperazin-1-yl}-2,4(1H,3H)-pyrimidinedione oxalate]: in data set [1], the change in vivo at 0.1 mg/kg came to 6.7%, the change in vivo at 0.3 mg/kg amounted to 13.3%, the change in vivo at 1 mg/kg was 20% and the change in vivo at 3 mg/kg turned out to be 26.7%. In data set [2], the activation at 1 µg/mL stood at 19% and the activation at 3 µg/mL came to 42%. This molecule showed a mortality at 24 h in data set [3] (po, 300 mg/kg (p.o.)) of 0%.

Take `Cn1c(N2CCN(CCCOc3ccc([N+](=O)[O-])cc3C(=O)c3ccccc3)CC2)cc(=O)n(C)c1=O` [Compound 80, 1,3-dimethyl-6-{4-[3-(2-benzoyl-4-nitrophenoxy)propyl]piperazin-1-yl}-2,4(1H,3H)-pyrimidinedione oxalate]: in data set [1], the change in vivo at 0.1 mg/kg was determined as 2.6%, the change in vivo at 0.3 mg/kg was 9.7% and the change in vivo at 1 mg/kg turned out to be 21.9%. Besides, in data set [2], the activation at 1 µg/mL turned out to be 19%, the activation at 3 µg/mL worked out at 30% and the activation at 10 µg/mL amounted to 34%. For the same molecule, the mortality at 24 h in data set [3] (po, 300 mg/kg (p.o.)) was 0%.

Take `Cn1c(N2CCN(CCCOc3ccc([N+](=O)[O-])cc3C(=O)c3ccccc3Cl)CC2)cc(=O)n(C)c1=O` [Compound 105, 1,3-dimethyl-6-{4-<3-[2-(2-chlorobenzoyl)-4-nitrophenoxy]propyl>piperazin-1-yl}-2,4(1H,3H)-pyrimidinedione oxalate]: in data set [1], the change in vivo at 0.1 mg/kg worked out at 0%, the change in vivo at 0.3 mg/kg came to 0%, the change in vivo at 1 mg/kg is 6.3% and the change in vivo at 3 mg/kg is 6.3%. In data set [2], the activation at 1 µg/mL worked out at 11%, the activation at 3 µg/mL stood at 23% and the activation at 10 µg/mL was 28%. This molecule returned a mortality at 24 h in data set [3] (po, 300 mg/kg (p.o.)) of 0%.

As to `Cn1c(N2CCN(CCCOc3ccc([N+](=O)[O-])cc3Cl)CC2)cc(=O)n(C)c1=O` [Compound 141, 1,3-dimethyl-6-{4-[3-(2-chloro-4-nitrophenyloxy)propyl]piperazin-1-yl}-2,4(1H,3H)-pyrimidinedione hydrochloride], in data set [1], the change in vivo at 0.1 mg/kg amounted to 0%, the change in vivo at 0.3 mg/kg came out at 2.1%, the change in vivo at 1 mg/kg came to 2.1% and the change in vivo at 3 mg/kg amounted to 15%. In data set [2], the activation at 1 µg/mL stood at 27% and the activation at 3 µg/mL is 41%. Besides, the mortality at 24 h in data set [3] (po, 300 mg/kg (p.o.)) worked out at 0%.

For `Cn1c(N2CCN(CCCOc3cc([N+](=O)[O-])ccc3O)CC2)cc(=O)n(C)c1=O` [Compound 145, 1,3-dimethyl-6-{4-[3-(2-hydroxy-5-nitrophenyloxy)propyl]piperazin-1-yl}-2,4(1H,3H)-pyrimidinedione hydrochloride], in data set [1], the change in vivo at 0.1 mg/kg was 0%, the change in vivo at 0.3 mg/kg was 6.7%, the change in vivo at 1 mg/kg came out at 6.7% and the change in vivo at 3 mg/kg stood at 20%. Besides, in data set [2], the activation at 1 µg/mL turned out to be 7%, the activation at 3 µg/mL was found to be 16% and the activation at 10 µg/mL was found to be 23%. Moreover, the mortality at 24 h in data set [3] (po, 300 mg/kg (p.o.)) worked out at 0%.

With `CSc1ccc(OCCCN2CCN(c3cc(=O)n(C)c(=O)n3C)CC2)c([N+](=O)[O-])c1` [Compound 147, 1,3-dimethyl-6-{4-[3-(4-methylthio-2-nitrophenyloxy)propyl]piperazin-1-yl}-2,4(1H,3H)-pyrimidinedione hydrochloride], in data set [1], the change in vivo at 0.1 mg/kg stood at 0%, the change in vivo at 0.3 mg/kg worked out at 0% and the change in vivo at 1 mg/kg was 0%. Further, in data set [2], the activation at 1 µg/mL came out at 14% and the activation at 3 µg/mL is 18%. For the same molecule, the mortality at 24 h in data set [3] (po, 300 mg/kg (p.o.)) amounted to 0%.

For `C=CCOc1cc([N+](=O)[O-])ccc1OCCCN1CCN(c2cc(=O)n(C)c(=O)n2C)CC1` [Compound 161, 1,3-dimethyl-6-{4-[3-(2-allyloxy-4-nitrophenyloxy)propyl]piperazin-1-yl}-2,4(1H,3H)-pyrimidinedione hydrochloride], in data set [1], the change in vivo at 0.1 mg/kg was 0%, the change in vivo at 0.3 mg/kg turned out to be 6.7%, the change in vivo at 1 mg/kg was 6.7% and the change in vivo at 3 mg/kg was determined as 6.7%. Also, in data set [2], the activation at 1 µg/mL came to 26% and the activation at 3 µg/mL amounted to 39%. Further, the mortality at 24 h in data set [3] (po, 300 mg/kg (p.o.)) worked out at 0%.

Regarding `COC(=O)CN(CCCNc1ccc([N+](=O)[O-])cc1)CCNc1cc(=O)n(C)c(=O)n1C` [Compound 166, 1,3-dimethyl-6-{2-[N-methoxycarbonylmethyl-3-(4-nitroanilino)propylamino]ethylamino}-2,4(1H,3H)-pyrimidinedione hydrochloride], in data set [1], the change in vivo at 0.1 mg/kg came to 6.7%, the change in vivo at 0.3 mg/kg was 6.7%, the change in vivo at 1 mg/kg was 6.7% and the change in vivo at 3 mg/kg turned out to be 6.7%. In addition, in data set [2], the activation at 1 µg/mL came to 8% and the activation at 3 µg/mL was 18%. In data set [3] (po, 300 mg/kg (p.o.)), this molecule came in with a mortality at 24 h of 0%.
